Data as given in patent US5968912A, “Methods for immunosuppressing” (Immune Modulation, Inc., priority 1997, dated 1999).

Assays:
Format in all cases: cell-based, human
[1] = test system: mononuclear leukocytes (Two-way MLR); test: Two-way mixed leukocyte reaction (MLR), 3H-thymidine incorporation; conditions: for inhibition at 0.01 µM / inhibition at 0.1 µM / inhibition at 1 µM / inhibition at 10 µM / inhibition at 100 µM: Homo sapiens, Leukocyte
[2] = test system: Protein Kinase-C-Mediated T-cell Proliferation (PBMC); test: PK-C-mediated T-cell proliferation (PMA + A23187); conditions: PMA 1.25 ng/mL + A23187 0.25 μM; for Proliferation: 100 μM; for inhibition at 100 µM: Homo sapiens, T-cell
Method: Determination of the effect of HE-33 on PK-C-mediated signaling pathway
PBMC of a healthy volunteer were cultured in 96-well microtiter plates at 2×10^5 cells/well. […] Forskolin is an agent well known to increase intacellular cAMP levels by activating adenylate cyclase. Cultures were incubated for 3 days at 37° C. in a 5% CO2 incubator. Proliferative response was determined by incorporation of ^3 H-thymidine.. The results were expressed in CPM and % inhibition of proliferation (Table 7).

IL-10 = IL-10 production in PHA-stimulated PBMC cultures; parameters: % Inhibition of IL-10 production: concentration or dose not given beside the values
Method: (§1) Production of autocrine growth factors (IL-2, IL-4, IL-10 and Interferon-gamma) in PHA-stimulated human PBMC cultures
(§2) Culture supernatants were collected at the times indicated and frozen at -20° C. At the end of 96 hr., all supernatants were assayed by enzyme immunoassay for the presence of the cytokines: interleukin-2, -4, -10 and interferon (IFN)-gamma. Results were expressed in pg/mL concentration of cytokine and % inhibition of cytokine production.

IL-2 = IL-2 production in PHA-stimulated PBMC cultures; parameters: % Inhibition of IL-2 production: concentration or dose not given beside the values
Method: as §1, §2

IL-4 = IL-4 production in PHA-stimulated PBMC cultures; parameters: % Inhibition of IL-4 production: concentration or dose not given beside the values
Method: as §1, §2

Interferon-gamma = Interferon-gamma production in PHA-stimulated PBMC cultures; parameters: % Inhibition of IFN-γ production: concentration or dose not given beside the values
Method: as §1, §2

## Cc1ccc(S(=O)(=O)O[C@@H]2[C@@H]3OP(=O)(O)OC[C@H]3O[C@H]2n2cnc3c(N)ncnc32)cc1 [Compound 1-5, 2'-O-Tosyl-c-AMP]
[1]
  inhibition at 0.01 µM: 0%
  inhibition at 0.1 µM: 16%
  inhibition at 1 µM: 25%
  inhibition at 10 µM: 24%
  inhibition at 100 µM: 58%

## CCCN(CCC)c1ncnc2c1ncn2[C@@H]1O[C@@H]2COP(=O)(O)O[C@H]2[C@H]1OS(=O)(=O)c1ccc(C)cc1 [Compound 1-15, N^6,N^6-di-n-Propyl-2'-O-tosyl-c-AMP]
[1]
  inhibition at 0.01 µM: 0%
  inhibition at 0.1 µM: 6%
  inhibition at 1 µM: 9%
  inhibition at 10 µM: 25%
  inhibition at 100 µM: 99.4%

## CCCNc1ncnc2c1ncn2[C@@H]1O[C@@H]2COP(=O)(O)O[C@H]2[C@H]1O [Compound 1-16]
[1]
  inhibition at 0.01 µM: 0%
  inhibition at 0.1 µM: 2.2%
  inhibition at 1 µM: 12.5%
  inhibition at 10 µM: 90.7%
  inhibition at 100 µM: 99.8%

## CCCCN(CCCC)c1ncnc2c1ncn2[C@@H]1O[C@@H]2COP(=O)(O)O[C@H]2[C@H]1OS(=O)(=O)c1ccc(C)cc1 [Compound 1-22]
[1]
  inhibition at 0.01 µM: 0%
  inhibition at 0.1 µM: 7%
  inhibition at 1 µM: 4%
  inhibition at 10 µM: 0%
  inhibition at 100 µM: 99%

## CCCCN(CCCC)c1ncnc2c1ncn2[C@@H]1O[C@@H]2COP(=O)(O)O[C@H]2[C@H]1O [Compound 1-24]
[2]
  Proliferation: 16 CPM
  inhibition at 100 µM: 98%
[1]
  inhibition at 0.01 µM: 0%
  inhibition at 0.1 µM: 27%
  inhibition at 1 µM: 78%
  inhibition at 10 µM: 97%
  inhibition at 100 µM: 100%
[1]; two-way MLR
  Inhibitory capacity on two-way MLR, in words: significant inhibitory capacity

## CCCN(CCC)c1ncnc2c1nc(SCc1ccccc1)n2[C@@H]1O[C@@H]2COP(=O)(O)O[C@H]2[C@H]1O [Compound 1-42]
[1]
  inhibition at 1 µM: 0%
  inhibition at 10 µM: 31%
  inhibition at 100 µM: 89%

## CCCN(CCC)c1ncnc2c1ncn2[C@@H]1O[C@H](CO)[C@@H](O)[C@H]1O [Compound 1-46]
[1]
  inhibition at 1 µM: 12%
  inhibition at 10 µM: 83%
  inhibition at 100 µM: 98%

## CCN(CC)c1ncnc2c1ncn2[C@@H]1O[C@H](CO)[C@@H](O)[C@H]1O [Compound 1-50]
[1]
  inhibition at 1 µM: 13%
  inhibition at 10 µM: 45%
  inhibition at 100 µM: 88%

## C=CC[C@@H]1/C=C(\C)C[C@H](C)C[C@H](OC)[C@H]2O[C@@](O)(C(=O)C(=O)N3CCCC[C@H]3C(=O)O[C@H](/C(C)=C/[C@@H]3CC[C@@H](O)[C@H](OC)C3)[C@H](C)[C@@H](O)CC1=O)[C@H](C)C[C@@H]2OC [Fk506, reference compound]
IL-10; 24 hours
  % Inhibition of IL-10 production: 69%
  IL-10 production: 173 pg/mL
IL-10; 48 hours
  % Inhibition of IL-10 production: 77%
  IL-10 production: 235 pg/mL
IL-10; 72 hours
  % Inhibition of IL-10 production: 61%
  IL-10 production: 228 pg/mL
IL-10; 96 hours
  % Inhibition of IL-10 production: 76%
  IL-10 production: 200 pg/mL
IL-2; 24 hours
  % Inhibition of IL-2 production: 100%
  IL-2 production: 0.7 pg/mL
IL-2; 48 hours
  % Inhibition of IL-2 production: 97%
  IL-2 production: 16 pg/mL
IL-2; 72 hours
  % Inhibition of IL-2 production: 91%
  IL-2 production: 16 pg/mL
IL-2; 96 hours
  % Inhibition of IL-2 production: 0%
  IL-2 production: 23 pg/mL
IL-4; 24 hours
  % Inhibition of IL-4 production: 98%
  IL-4 production: 18 pg/mL
IL-4; 48 hours
  % Inhibition of IL-4 production: 99%
  IL-4 production: 17 pg/mL
IL-4; 72 hours
  % Inhibition of IL-4 production: 99%
  IL-4 production: 10 pg/mL
IL-4; 96 hours
  % Inhibition of IL-4 production: 93%
  IL-4 production: 10 pg/mL
Interferon-gamma; 24 hours
  % Inhibition of IFN-γ production: 100%
  IFN-γ production: 0 pg/mL
Interferon-gamma; 48 hours
  % Inhibition of IFN-γ production: 98%
  IFN-γ production: 155 pg/mL
Interferon-gamma; 72 hours
  % Inhibition of IFN-γ production: 92%
  IFN-γ production: 232 pg/mL
Interferon-gamma; 96 hours
  % Inhibition of IFN-γ production: 96%
  IFN-γ production: 225 pg/mL

## C=C[C@@]1(C)CC(=O)[C@]2(O)[C@@]3(C)[C@@H](O)CCC(C)(C)[C@@H]3[C@H](O)[C@H](OC(C)=O)[C@@]2(C)O1 [Forskolin, reference compound]
[2]
  Proliferation: 476 CPM
  inhibition at 100 µM: 55%
[1]
  inhibition at 0.01 µM: 20%
  inhibition at 0.1 µM: 28%
  inhibition at 1 µM: 31%
  inhibition at 10 µM: 55%
  inhibition at 100 µM: 60%

## CCCC(=O)Nc1ncnc2c1ncn2[C@@H]1O[C@@H]2COP(=O)(O)O[C@H]2[C@H]1OC(=O)CCC [dbcAMP, reference compound]
[2]
  Proliferation: 645 CPM
  inhibition at 100 µM: 38%
